In patent US6506339B1, “Method of sterilization” (Biomedical Design, Inc., priority 1997, dated 2003):

Legend:
[1] = tested on: Bacillus subtilis (niger) spores; experiment: D values of EDC without isopropyl alcohol, 40° C. (Example 4A); type: cell-based; conditions: no isopropyl alcohol; for incubation duration necessary to achieve 6 log reduction: calculated from D value
Experimental: The following experiment was carried out to assess the effectiveness of a coupling agent, such as EDC, in the absence of isopropyl alcohol or an equivalent alkanol. Bacillus subtilis (niger) spores at levels of 1.5×10^6 were inoculated in sterile cups for approximately 10 minutes. Solutions (50 ml) of 25, 37.5 and 50 mM EDC in 10 mM TRIS, 0.85% NaCl, pH 6.5, which contain no isopropyl alcohol, were prewarmed to 40° C. and then rapidly added to the cups. The cups were incubated at 40° C. for 0.5, 1, 6, 24 and 48 hours; then, the solutions were diluted and filtered in order to collect microorganisms. Next, the filters were rinsed with a 0.1% peptone water solution to eliminate any residual EDC and then incubated on TSA plates for up to 14 days. The plates were examined every day for growth, with the colony forming units (CFUs) being counted, and resulting D values were calculated. Such D values represent the duration (in minutes) of incubation to decrease the level of spores by one log, i.e. eliminating 90% of the spores population.

[2] = tested on: Bacillus subtilis (niger) spores; experiment: Sterilization without isopropyl alcohol with porcine aortic root tissue (Example 4C); type: cell-based; conditions: 40° C., 1.5×10^6 spores with root tissue, no isopropyl alcohol
Experimental: An experiment similar to that of Example 4A is carried out using slightly higher concentrations of EDC and including porcine aortic root tissue. Bacillus subtilis (niger) spores at levels of 1.5×10^6 are inoculated for approximately 10 minutes in sterile cups each containing root tissue. Solutions (50 ml) of 50, 75 and 100 mM EDC in 10 mM TRIS, 0.85% NaCl, pH 6.5 are prewarmed to 40° C. and then rapidly added to the tissues in the cups. The cups containing the tissue are incubated at 40° C. for 6, 9, 12, 24 and 48 hours; then, the solutions are diluted and filtered in order to collect microorganisms. The valve tissue is washed for 20 minutes in a reciprocating shaker in the presence of peptone water containing Tween 80 in order to extract all spores of microorganisms from the tissue. The solutions from the shakers are filtered through the respective filters to which the original solutions were applied. The filters are rinsed with a 0.1% peptone water solution and incubated on TSA plates for up to 14 days. The plates are examined daily for growth.

[3] = tested on: Methylbacterium extorquens ATCC 43645 vegetative cells; experiment: Sterilization in cups at about 38° C. (Example 6); type: cell-based, Methylobacterium extorquens; conditions: 25 mM EDC, 20% isopropanol, inoculum Log 10 6.94
Experimental: In view of the foregoing verification, it was decided to test the effectiveness of the sterilization process against other bacteria using sterile cups. Added to each of the cups is 20 ml of 10 mM HEPES, 0.85%, Nacl, 20% isopropanol, pH 6.5, containing 25 mM EDC without any coupling enhancer, before the cups are placed in a incubator at about 38° C. When the solution temperature reached about 38° C., approximately 10^5-10^6 organisms were inoculated into the solution. The tests were carried out in triplicate. The following four isolated were tested in the form of sporous suspensions: Clostridium sporogenes ATCC 3584, Bacillus pumilus ATCC 27142, Chaetonium globosom ATCC 6205, and Microacus cinereus ATCC 16594. The following three isolates were tested as vegetative cells: Mycobacterium chelonae ATCC 35752, Methylbacterium extorquens ATCC 43645 and Trichosporon aquatile ATCC 22310. The inoculated systems were allowed to incubate for 1 hour, for 5 hours or for 24 hours, and the solutions were then filtered through a 0.45 micron filter. After rinsing, the filter was placed on a TSA plate as described in Example 1. Negative and positive controls indicate that the tests were valid. The results are set forth in Table D which follows wherein the number of CFUs in the inoculum is expressed as its log to the base 10, e.g. 3.4×10^5=5.5: […]

[4] = tested on: spores of Bacillus subtilis; experiment: Two sequential spore inoculations on cross-linked porcine valves (Example 5); type: cell-based; conditions: 25 mM EDC, 20% isopropyl alcohol, 40° C.
Experimental: An experiment was also designed to test the bactericidal activity of the EDC treatment using two sequential inoculations of at least 1×10^6 spores of Bacillus subtilis per sample. In the first step, 1.43×10^6 spores (Log10=6.2) were inoculated in triplicate for 10 minutes onto 45 porcine valves which had been cross-linked using a method as described in the above-mentioned patent and patent application. Solutions of 25 mM EDC in 10 mM HEPES, 0.85% NaCl, 20% isopropyl alcohol, at pH 6.5 were poured into the cups containing the valve samples. After 2, 4, 6, and 8 hours of incubation at 40° C., the total surviving spores from 12 samples (solution plus tissue) were counted. After 8 hours of incubation, an additional 1.2×10^6 (Log10=6.1) spores were added to the remaining 33 samples. Summarizing, these remaining 33 samples were thus inoculated at t=0 with 1.43×10^6 spores and at t=8 with 1.2×10^6 spores. After various durations of incubation (see Table C for details), the surviving spores in solution and on the valve tissue were removed by filtering and incubated on TSA plates as described above. The positive and negative controls were determined to be valid for the test.

[5] = 28 to 56 hours, rechallenge with 1.2×10^6 spores at 8 hours, mean of three samples
[6] = 2 hours, inoculum 1.43×10^6, mean of three samples
[7] = 4 hours, inoculum 1.43×10^6, mean of three samples
[8] = 6 hours, inoculum 1.43×10^6, mean of three samples
[9] = 8 hours, inoculum 1.43×10^6, mean of three samples
[10] = 11 hours, rechallenge with 1.2×10^6 spores at 8 hours, mean of three samples
[11] = 14 hours, rechallenge with 1.2×10^6 spores at 8 hours, mean of three samples
[12] = 20 hours, rechallenge with 1.2×10^6 spores at 8 hours, mean of three samples
[13] = 24 hours, rechallenge with 1.2×10^6 spores at 8 hours, mean of three samples

CCN=C=NCCCN(C)C.Cl [EDC, 1-ethyl-3(3-dimethylaminopropyl)carbodiimide hydrochloride]
D value (duration of incubation to decrease the level of spores by one log) ([1]; 25 mM EDC): 203 minutes | incubation duration necessary to achieve 6 log reduction ([1]; 25 mM EDC): 24 hours | D value (duration of incubation to decrease the level of spores by one log) ([1]; 37.5 mM EDC): 106 minutes | incubation duration necessary to achieve 6 log reduction ([1]; 37.5 mM EDC): 11 hours | D value (duration of incubation to decrease the level of spores by one log) ([1]; 50 mM EDC): 86 minutes | incubation duration necessary to achieve 6 log reduction ([1]; 50 mM EDC): 9 hours | inactivation of spores ([2]; 50 mM EDC, 6 hours): only partial kill | inactivation of spores ([2]; 50 mM EDC, 9 hours): complete inactivation of the spores | inactivation of spores ([2]; 75 mM EDC, 6 hours): effectively inactivates these spores | inactivation of spores ([2]; 75 mM EDC, 9 hours): complete inactivation of the spores | inactivation of spores ([2]; 100 mM EDC, 6 hours): effectively inactivates these spores | inactivation of spores ([2]; 100 mM EDC, 9 hours): complete inactivation of the spores | Log REDUCTION ([3]; 1 Hour): 6.94 | Log REDUCTION ([3]; 5 Hours): 6.94 | LOG REDUCTION [4, 5]: 6.1 | Total Survivors # CFUs [4, 5]: 0 CFUs | Total Survivors Log 10 [4, 5]: 0 Log 10 | LOG REDUCTION [4, 6]: 4.5 | Total Survivors # CFUs [4, 6]: 58 CFUs | Total Survivors Log 10 [4, 6]: 1.7 Log 10 | LOG REDUCTION [4, 7]: 5.6 | Total Survivors # CFUs [4, 7]: 4 CFUs | Total Survivors Log 10 [4, 7]: 0.5 Log 10 | LOG REDUCTION [4, 8]: 6.2 | Total Survivors # CFUs [4, 8]: 0 CFUs | Total Survivors Log 10 [4, 8]: 0 Log 10 | LOG REDUCTION [4, 9]: 6.2 | Total Survivors # CFUs [4, 9]: 0 CFUs | Total Survivors Log 10 [4, 9]: 0 Log 10 | LOG REDUCTION [4, 10]: 3.7 | Total Survivors # CFUs [4, 10]: 300 CFUs | Total Survivors Log 10 [4, 10]: 2.5 Log 10 | LOG REDUCTION [4, 11]: 6.1 | Total Survivors # CFUs [4, 11]: 0 CFUs | Total Survivors Log 10 [4, 11]: 0 Log 10 | LOG REDUCTION [4, 12]: 6.1 | Total Survivors # CFUs [4, 12]: 0 CFUs | Total Survivors Log 10 [4, 12]: 0 Log 10 | LOG REDUCTION [4, 13]: 6.1 | Total Survivors # CFUs [4, 13]: 0 CFUs | Total Survivors Log 10 [4, 13]: 0 Log 10
